Values joined by “and” are separate entries in the source; they are usually repeats but may differ in a detail not shown here. Identical values can stand only once. Inconclusive results and toxic doses are left out.
Test system: L1210 leukemia ip in BDF1 mice, survival T/C
Test: NCI In Vivo Anticancer Drug Screen. Data for tumor model L1210 Leukemia (intraperitoneal) in B6D2F1 (BDF1) mice
Conditions: higher = longer survival
In short: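 Read-out is survival time, reported as the treated-group measurement over the vehicle-control measurement.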

COc1ccc2[nH]c3c(C)c4ccncc4c(C)c3c2c1
T/C (endpoint: mean survival time, dose: 2.5 mg/kg/injection, schedule: Q01DX009 (ip), vehicle: Klucel (hydroxypropylcellulose) (HPC)): 93 % of control | T/C (endpoint: mean survival time, dose: 3.12 mg/kg/injection, schedule: Q01DX009 (ip), vehicle: citric acid): 113 % of control and 124 % of control | T/C (endpoint: mean survival time, dose: 3.12 mg/kg/injection, schedule: Q01DX009 (ip), vehicle: clinical formulation): 109 % of control and 121 % of control | T/C (endpoint: mean survival time, dose: 3.12 mg/kg/injection, schedule: Q04DX003 (ip), vehicle: citric acid): 106 % of control | T/C (endpoint: mean survival time, dose: 3.12 mg/kg/injection, schedule: Q04DX003 (ip), vehicle: clinical formulation): 104 % of control | T/C (endpoint: mean survival time, dose: 5.0 mg/kg/injection, schedule: Q01DX009 (ip), vehicle: Klucel (hydroxypropylcellulose) (HPC)): 106 % of control | T/C (endpoint: mean survival time, dose: 6.0 mg/kg/injection, schedule: Q01DX Z (ip), vehicle: saline): 112 % of control | T/C (endpoint: mean survival time, dose: 6.25 mg/kg/injection, schedule: Q01DX009 (ip), vehicle: citric acid): 122 % of control | T/C (endpoint: mean survival time, dose: 6.25 mg/kg/injection, schedule: Q04DX003 (ip), vehicle: citric acid): 109 % of control and 112 % of control | T/C (endpoint: mean survival time, dose: 6.25 mg/kg/injection, schedule: Q04DX003 (ip), vehicle: clinical formulation): 106 % of control and 108 % of control | T/C (endpoint: mean survival time, dose: 9.37 mg/kg/injection, schedule: Q01DX001 (ip), vehicle: other): 102 % of control | T/C (endpoint: mean survival time, dose: 9.37 mg/kg/injection, schedule: Q01DX001 (sc), vehicle: other): 98 % of control | T/C (endpoint: mean survival time, dose: 9.37 mg/kg/injection, schedule: Q04DX003 (ip), vehicle: other): 103 % of control | T/C (endpoint: mean survival time, dose: 9.38 mg/kg/injection, schedule: Q04DX003 (ip), vehicle: clinical formulation): 104 % of control | T/C (endpoint: mean survival time, dose: 9.38 mg/kg/injection, schedule: Q04DX003 (ip), vehicle: lactic acid): 121 % of control | T/C (endpoint: mean survival time, dose: 10.0 mg/kg/injection, schedule: Q01DX009 (ip), vehicle: Klucel (hydroxypropylcellulose) (HPC)): 109 % of control | T/C (endpoint: mean survival time, dose: 12.0 mg/kg/injection, schedule: Q01DX001 (ip), vehicle: saline): 106 % of control | T/C (endpoint: mean survival time, dose: 12.0 mg/kg/injection, schedule: Q01DX Z (ip), vehicle: saline): 109 % of control and 123 % of control | T/C (endpoint: mean survival time, dose: 12.0 mg/kg/injection, schedule: Q01DX Z (oral), vehicle: saline): 116 % of control | T/C (endpoint: mean survival time, dose: 12.5 mg/kg/injection, schedule: Q01DX009 (ip), vehicle: citric acid): 150 % of control | T/C (endpoint: mean survival time, dose: 12.5 mg/kg/injection, schedule: Q04DX003 (ip), vehicle: citric acid): 116 % of control | T/C (endpoint: mean survival time, dose: 12.5 mg/kg/injection, schedule: Q04DX003 (ip), vehicle: clinical formulation): 117 % of control and 120 % of control | T/C (endpoint: mean survival time, dose: 18.75 mg/kg/injection, schedule: Q01DX001 (ip), vehicle: other): 108 % of control and 109 % of control | T/C (endpoint: mean survival time, dose: 18.75 mg/kg/injection, schedule: Q01DX001 (sc), vehicle: other): 104 % of control | T/C (endpoint: mean survival time, dose: 18.75 mg/kg/injection, schedule: Q04DX003 (ip), vehicle: other): 118 % of control | T/C (endpoint: mean survival time, dose: 20.0 mg/kg/injection, schedule: Q01DX009 (ip), vehicle: Klucel (hydroxypropylcellulose) (HPC)): 119 % of control | T/C (endpoint: mean survival time, dose: 25.0 mg/kg/injection, schedule: Q01DX001 (ip), vehicle: saline): 104 % of control | T/C (endpoint: mean survival time, dose: 25.0 mg/kg/injection, schedule: Q01DX009 (ip), vehicle: citric acid): 93 % of control | T/C (endpoint: mean survival time, dose: 25.0 mg/kg/injection, schedule: Q01DX009 (ip), vehicle: clinical formulation): 101 % of control | T/C (endpoint: mean survival time, dose: 37.5 mg/kg/injection, schedule: Q01DX001 (ip), vehicle: other): 114 % of control and 120 % of control | T/C (endpoint: mean survival time, dose: 37.5 mg/kg/injection, schedule: Q01DX001 (ip), vehicle: saline): 104 % of control | T/C (endpoint: mean survival time, dose: 37.5 mg/kg/injection, schedule: Q01DX001 (oral), vehicle: other): 118 % of control | T/C (endpoint: mean survival time, dose: 37.5 mg/kg/injection, schedule: Q01DX001 (sc), vehicle: other): 113 % of control | T/C (endpoint: mean survival time, dose: 37.5 mg/kg/injection, schedule: Q01DX001 (sc), vehicle: saline): 104 % of control | T/C (endpoint: mean survival time, dose: 37.5 mg/kg/injection, schedule: Q04DX003 (oral), vehicle: other): 113 % of control | T/C (endpoint: mean survival time, dose: 50.0 mg/kg/injection, schedule: Q01DX001 (ip), vehicle: other): 105 % of control | T/C (endpoint: mean survival time, dose: 50.0 mg/kg/injection, schedule: Q01DX001 (ip), vehicle: saline): 98 % of control | T/C (endpoint: mean survival time, dose: 50.0 mg/kg/injection, schedule: Q04DX003 (ip), vehicle: clinical formulation): 123 % of control | T/C (endpoint: mean survival time, dose: 75.0 mg/kg/injection, schedule: Q01DX001 (ip), vehicle: saline): 111 % of control and 113 % of control and 115 % of control | T/C (endpoint: mean survival time, dose: 75.0 mg/kg/injection, schedule: Q01DX001 (oral), vehicle: other): 124 % of control | T/C (endpoint: mean survival time, dose: 75.0 mg/kg/injection, schedule: Q01DX001 (oral), vehicle: saline): 113 % of control | T/C (endpoint: mean survival time, dose: 75.0 mg/kg/injection, schedule: Q01DX001 (sc), vehicle: other): 112 % of control | T/C (endpoint: mean survival time, dose: 75.0 mg/kg/injection, schedule: Q01DX001 (sc), vehicle: saline): 100 % of control | T/C (endpoint: mean survival time, dose: 100.0 mg/kg/injection, schedule: Q01DX Z (ip), vehicle: carboxymethylcellulose (CMC)): 96 % of control | T/C (endpoint: mean survival time, dose: 100.0 mg/kg/injection, schedule: Q01DX Z (ip), vehicle: saline): 109 % of control | T/C (endpoint: mean survival time, dose: 100.0 mg/kg/injection, schedule: Q04DX003 (ip), vehicle: citric acid): 110 % of control | T/C (endpoint: mean survival time, dose: 100.0 mg/kg/injection, schedule: Q04DX003 (ip), vehicle: clinical formulation): 93 % of control and 103 % of control | T/C (endpoint: mean survival time, dose: 115.0 mg/kg/injection, schedule: Q01DX001 (ip), vehicle: saline): 113 % of control | T/C (endpoint: mean survival time, dose: 115.0 mg/kg/injection, schedule: Q01DX Z (oral), vehicle: saline): 95 % of control | T/C (endpoint: mean survival time, dose: 150.0 mg/kg/injection, schedule: Q01DX001 (ip), vehicle: saline): 118 % of control | T/C (endpoint: mean survival time, dose: 150.0 mg/kg/injection, schedule: Q01DX001 (sc), vehicle: other): 120 % of control | T/C (endpoint: mean survival time, dose: 150.0 mg/kg/injection, schedule: Q01DX001 (sc), vehicle: saline): 107 % of control | T/C (endpoint: mean survival time, dose: 170.0 mg/kg/injection, schedule: Q01DX001 (ip), vehicle: saline): 108 % of control | T/C (endpoint: mean survival time, dose: 170.0 mg/kg/injection, schedule: Q01DX Z (ip), vehicle: saline): 104 % of control | T/C (endpoint: mean survival time, dose: 225.0 mg/kg/injection, schedule: Q01DX001 (ip), vehicle: saline): 115 % of control | T/C (endpoint: mean survival time, dose: 255.0 mg/kg/injection, schedule: Q01DX Z (ip), vehicle: saline): 96 % of control | T/C (endpoint: mean survival time, dose: 255.0 mg/kg/injection, schedule: Q01DX Z (oral), vehicle: saline): 106 % of control | T/C (endpoint: mean survival time, dose: 300.0 mg/kg/injection, schedule: Q01DX001 (ip), vehicle: saline): 122 % of control | T/C (endpoint: mean survival time, dose: 300.0 mg/kg/injection, schedule: Q01DX001 (sc), vehicle: saline): 103 % of control | T/C (endpoint: mean survival time, dose: 600.0 mg/kg/injection, schedule: Q01DX001 (oral), vehicle: other): 92 % of control | T/C (endpoint: mean survival time, dose: 600.0 mg/kg/injection, schedule: Q01DX001 (sc), vehicle: saline): 111 % of control | T/C (endpoint: mean survival time, dose: 1200.0 mg/kg/injection, schedule: Q01DX001 (oral), vehicle: saline): 104 % of control | T/C (endpoint: median survival time, dose: 2.0 mg/kg/injection, schedule: Q03HX008 (oral), vehicle: other): 100 % of control | T/C (endpoint: median survival time, dose: 2.0 mg/kg/injection, schedule: Q03HX008 (sc), vehicle: water): 100 % of control | T/C (endpoint: median survival time, dose: 4.0 mg/kg/injection, schedule: Q01DX009 (ip), vehicle: other): 116 % of control | T/C (endpoint: median survival time, dose: 4.0 mg/kg/injection, schedule: Q01DX009 (oral), vehicle: other): 111 % of control | T/C (endpoint: median survival time, dose: 4.0 mg/kg/injection, schedule: Q01DX009 (sc), vehicle: water): 100 % of control | T/C (endpoint: median survival time, dose: 4.0 mg/kg/injection, schedule: Q03HX008 (oral), vehicle: other): 111 % of control | T/C (endpoint: median survival time, dose: 4.0 mg/kg/injection, schedule: Q03HX008 (sc), vehicle: water): 111 % of control | T/C (endpoint: median survival time, dose: 8.0 mg/kg/injection, schedule: Q01DX009 (oral), vehicle: other): 111 % of control | T/C (endpoint: median survival time, dose: 8.0 mg/kg/injection, schedule: Q01DX009 (sc), vehicle: water): 116 % of control | T/C (endpoint: median survival time, dose: 8.0 mg/kg/injection, schedule: Q03HX008 (oral), vehicle: other): 94 % of control | T/C (endpoint: median survival time, dose: 8.0 mg/kg/injection, schedule: Q03HX008 (sc), vehicle: water): 122 % of control | T/C (endpoint: median survival time, dose: 16.0 mg/kg/injection, schedule: Q01DX001 (oral), vehicle: other): 100 % of control | T/C (endpoint: median survival time, dose: 16.0 mg/kg/injection, schedule: Q01DX001 (sc), vehicle: water): 111 % of control | T/C (endpoint: median survival time, dose: 16.0 mg/kg/injection, schedule: Q01DX009 (ip), vehicle: water): 111 % of control | T/C (endpoint: median survival time, dose: 16.0 mg/kg/injection, schedule: Q01DX009 (oral), vehicle: other): 122 % of control | T/C (endpoint: median survival time, dose: 16.0 mg/kg/injection, schedule: Q03HX008 (oral), vehicle: other): 116 % of control | T/C (endpoint: median survival time, dose: 32.0 mg/kg/injection, schedule: Q01DX001 (oral), vehicle: other): 111 % of control | T/C (endpoint: median survival time, dose: 32.0 mg/kg/injection, schedule: Q01DX009 (ip), vehicle: other): 100 % of control | T/C (endpoint: median survival time, dose: 32.0 mg/kg/injection, schedule: Q01DX009 (ip), vehicle: water): 100 % of control | T/C (endpoint: median survival time, dose: 32.0 mg/kg/injection, schedule: Q01DX009 (oral), vehicle: other): 105 % of control | T/C (endpoint: median survival time, dose: 32.0 mg/kg/injection, schedule: Q03HX008 (sc), vehicle: water): 150 % of control | T/C (endpoint: median survival time, dose: 64.0 mg/kg/injection, schedule: Q01DX001 (oral), vehicle: other): 111 % of control | T/C (endpoint: median survival time, dose: 64.0 mg/kg/injection, schedule: Q01DX001 (sc), vehicle: water): 111 % of control | T/C (endpoint: median survival time, dose: 64.0 mg/kg/injection, schedule: Q01DX009 (sc), vehicle: water): 116 % of control | T/C (endpoint: median survival time, dose: 128.0 mg/kg/injection, schedule: Q01DX001 (oral), vehicle: other): 122 % of control | T/C (endpoint: median survival time, dose: 128.0 mg/kg/injection, schedule: Q01DX009 (oral), vehicle: other): 111 % of control | T/C (endpoint: median survival time, dose: 256.0 mg/kg/injection, schedule: Q01DX001 (sc), vehicle: water): 122 % of control
